# Assay results from US20140031296A1, “NEW SYNTHETIC PEPTIDES AND THEIR USE” (PERGAMUM AB, priority 2011, published 2014).
# Assays:
# Type in all cases: cell-based
# S. aureus (CCUG 1800) = experiment: Minimal microbicidal concentration (MMC99) assay, S. aureus; conditions: for MMC99: S. aureus, Example 3; for MMC99 μM in 1% BHI medium / MMC99 μM in 50% SWF: screen 2, 2 hours; for MMC99 μM in 50% SWF: 50% heat inactivated simulated wound fluid
# Procedure: Antimicrobial Activity was Measured as Bactericidal Effect on S. aureus Using Minimal Microbicidal Concentration, MMC99, Assay)
# S. aureus (#1800; CCUG, Gothenburg, Sweden) cultured on blood-agar plates [Columbia agar (Oxoid, Basingstoke, UK) supplemented with 5% defibrinated horse blood (National Veterinary Institute (SVA), Uppsala, Sweden)] were transferred to brain heart infusion broth (3.7% BHI; Difco, BD Diagnostics, Franklin Lakes, N.J., USA) and incubated in a shaker at 250 rpm+37° C. over night. The culture was thereafter be diluted 1:10 in fresh BHI broth and incubated for additional two hours to reach log-phase growth. The bacteria were pelleted and suspended in 1% BHI medium (BHI broth diluted 100 times in ultra-pure water) to a concentration of 10^7 bacteria/ml as estimated by measuring optical density at 600 nm. Peptides were serially diluted by two-fold steps from 160 μM to 1.25 μM in 1% BHI medium. The peptides (100 μl) were thereafter incubated with bacteria (5 μl á 10^7 bact./ml) for 2 hours at +37° C. Drops (5 μl) of the suspension were placed on blood agar plates. The blood agar plates were incubated over night at +37° C. The MMC99 values, i.e. the lowest peptide concentration needed to achieve a 99% reduction of viable bacteria, were recorded (Table 3). The concentration of the bacterial suspension used in the assay was confirmed by viable counts on blood agar plates.
# S. aureus (#1800; CCUG, Gothenburg, Sweden) cultured on blood-agar plates [Columbia agar (Oxoid, Basingstoke, UK) supplemented with 5% defibrinated horse blood (National Veterinary Institute (SVA), Uppsala, Sweden)] were transferred to brain heart infusion broth (3.7% BHI; Difco, BD Diagnostics, Franklin Lakes, N.J., USA) and incubated in a shaker at 250 rpm+37° C. over night. The culture was thereafter be diluted 1:10 in fresh BHI broth and incubated for additional two hours to reach log-phase growth. The bacteria were pelleted and suspended in 1% BHI medium (BHI broth diluted 100 times in ultra-pure water) to a final concentration of 10^7 bacteria/ml as estimated by measuring optical density at 600 nm.
# Peptides were serially diluted by two-fold steps from 400 μM to 0.78 μM in either 1% BHI medium or in 50% heat inactivated simulated wound fluid [SWF, containing 1 part 0.1% peptone (Oxoid, Basingstoke, UK) in saline and 1 part fetal bovine serum, diluted 2 times in ultra-pure water].
# The peptides (100 μl) were thereafter incubated with bacteria (5 μl a 10^7 bact./ml) for 2 hours at +37° C. Drops (5 μl) of the suspension were placed on blood agar plates. The blood agar plates were incubated over night at +37° C. The MMC99 values, i.e. the lowest peptide concentration needed to achieve a 99% reduction of viable bacteria were recorded (Table 6). The concentration of the bacterial suspension used in the assay was confirmed by viable counts on blood agar plates.
# (§1) The antimicrobial effects of the peptides 232 (SEQ ID NO: 78), and 220 (SEQ ID NO:67) were analysed by MMC99 (minimal microbicidal concentration) assay against S. aureus (CCUG 1800), MRSA (CCUG 41879), P. aeruginosa (ATCC 15442), E. coli (CCUG 31246), S. pyogenes (CCUG 4207), P. acnes (CCUG 1794T), S. epidermidis (ATCC12228), K. pneumoniae (ATCC 13883), A. baumannii (ATCC 19606), and C. albicans (ATCC 64549). The peptides were purchased from Biopeptide Company (San Diego, Calif., USA) and Bachem AG (Bubendorf, Switzerland) and results are presented in Table 8A and 8B respectively.
# Peptides were serially diluted in two different assay medium, 1% BHI medium (brain-heart infusion medium) or 50% heat inactivated simulated wound fluid (SWF), and thereafter incubated with the microorganisms for 2 hours. Drops of the suspension were placed on blood agar plates. The MMC99 values, i.e. the lowest peptide concentration needed to achieve a 99% reduction of viable microorganisms, were recorded. As presented in Table 8, all the peptides have the ability to kill microorganisms frequently appearing in infections. […]
# MRSA (CCUG 41879) = experiment: MMC99 assay, MRSA
# Procedure: as §1
# (§2) Peptides were serially diluted in two different assay medium, 1% BHI medium (brain-heart infusion medium) or 50% heat inactivated simulated wound fluid (SWF), and thereafter incubated with the microorganisms for 2 hours. Drops of the suspension were placed on blood agar plates. The MMC99 values, i.e. the lowest peptide concentration needed to achieve a 99% reduction of viable microorganisms, were recorded. As presented in Table 8, all the peptides have the ability to kill microorganisms frequently appearing in infections.
# [1] = tested on: P. aeruginosa (ATCC 15442); experiment: MMC99 assay, P. aeruginosa
# Procedure: as §1, §2
# [2] = tested on: S. epidermidis (ATCC12228); experiment: MMC99 assay, S. epidermidis
# Procedure: as §1, §2
# [3] = tested on: K. pneumoniae (ATCC 13883); experiment: MMC99 assay, K. pneumoniae
# Procedure: as §1, §2
# [4] = tested on: A. baumannii (ATCC 19606); experiment: MMC99 assay, A. baumannii
# Procedure: as §1, §2
# C. albicans (ATCC 64549) = experiment: MMC99 assay, C. albicans
# Procedure: as §1, §2
sequence,measurement,setting,value
QSLARKLFQWLRNLRKVA [Peptide 220],MMC99,S. aureus (CCUG 1800); 1% BHI,7 µg/mL
same,MMC99,S. aureus (CCUG 1800); 50% SWF,28 µg/mL
same,MMC99 μM in 1% BHI medium,S. aureus (CCUG 1800),12.5 µM
same,MMC99 μM in 50% SWF,S. aureus (CCUG 1800),25 µM
same,MMC99,MRSA (CCUG 41879); 1% BHI,6 µg/mL
same,MMC99,MRSA (CCUG 41879); 50% SWF,200 µg/mL
same,MMC99,[1]; 1% BHI,7 µg/mL
same,MMC99,[1]; 50% SWF,>200 µg/mL
RRLWRRWMRKVL [Peptide 232],MMC99,S. aureus (CCUG 1800); 1% BHI,5 µg/mL
same,MMC99,S. aureus (CCUG 1800); 50% SWF,44 µg/mL
same,MMC99 μM in 1% BHI medium,S. aureus (CCUG 1800),12.5 µM
same,MMC99 μM in 50% SWF,S. aureus (CCUG 1800),25 µM
same,MMC99,MRSA (CCUG 41879); 1% BHI,6 µg/mL
same,MMC99,MRSA (CCUG 41879); 50% SWF,100 µg/mL
same,MMC99,[1]; 1% BHI,5 µg/mL
same,MMC99,[1]; 50% SWF,>176 µg/mL
same,MMC99,[2]; 1% BHI,3 µg/mL
same,MMC99,[2]; 50% SWF,50 µg/mL
same,MMC99,[3]; 1% BHI,6 µg/mL
same,MMC99,[3]; 50% SWF,>200 µg/mL
same,MMC99,[4]; 1% BHI,3 µg/mL
same,MMC99,[4]; 50% SWF,200 µg/mL
same,MMC99,C. albicans (ATCC 64549); 1% BHI,3 µg/mL
same,MMC99,C. albicans (ATCC 64549); 50% SWF,50 µg/mL
